Measured values: patent US8802597B2, “Herbicidal pyrimidines” (E I du Pont de Nemours and Company, priority 2003, dated 2014)
Where two headings read alike, the source gives them in different places.

Columns and labels:
Type in all cases: in vivo
[1] = test system: Surinam grass (Brachiaria decumbens); assay: Test B pre/postemergence; settings: Urochloa decumbens; for pest or weed control at 125 g/ha: 125 g ai/ha; for pest or weed control at 500 g/ha: 500 g ai/ha
How it was run: (§1)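 Compounds in non-phytotoxic solvent with surfactant applied preemergence to planted seeds or postemergence to plants 2 to 18 cm tall (1- to 4-leaf stage). Greenhouse 13 to 15 days, then visual rating against controls on a 0 to 100 scale (100 = complete control).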

[2] = test system: barnyardgrass (Echinochloa crus-galli); assay: Test B pre/postemergence; settings: Echinochloa crus-galli; for pest or weed control at 125 g/ha: 125 g ai/ha; for pest or weed control at 500 g/ha: 500 g ai/ha
How it was run: as §1

[3] = test system: cocklebur (Xanthium strumarium); assay: Test B pre/postemergence; settings: Xanthium strumarium; for pest or weed control at 125 g/ha: 125 g ai/ha; for pest or weed control at 500 g/ha: 500 g ai/ha
How it was run: as §1

corn (Zea mays) = assay: Test B pre/postemergence; settings: Zea mays
How it was run: as §1

[4] = test system: crabgrass (Digitaria sanguinalis); assay: Test B pre/postemergence; settings: Digitaria sanguinalis; for pest or weed control at 125 g/ha: 125 g ai/ha; for pest or weed control at 500 g/ha: 500 g ai/ha
How it was run: as §1

[5] = test system: giant foxtail (Setaria faberii); assay: Test B pre/postemergence; settings: Setaria faberi; for pest or weed control at 125 g/ha: 125 g ai/ha; for pest or weed control at 500 g/ha: 500 g ai/ha
How it was run: as §1

[6] = test system: lambsquarters (Chenopodium album); assay: Test B pre/postemergence; settings: Chenopodium album; for pest or weed control at 125 g/ha: 125 g ai/ha; for pest or weed control at 500 g/ha: 500 g ai/ha
How it was run: as §1

[7] = test system: morningglory (Ipomoea coccinea); assay: Test B pre/postemergence; settings: Ipomoea; for pest or weed control at 125 g/ha: 125 g ai/ha; for pest or weed control at 500 g/ha: 500 g ai/ha
How it was run: as §1

[8] = test system: pigweed (Amaranthus retroflexus); assay: Test B pre/postemergence; settings: Amaranthus retroflexus; for pest or weed control at 125 g/ha: 125 g ai/ha; for pest or weed control at 500 g/ha: 500 g ai/ha
How it was run: as §1

[9] = test system: velvetleaf (Abutilon theophrasti); assay: Test B pre/postemergence; settings: Abutilon theophrasti; for pest or weed control at 125 g/ha: 125 g ai/ha; for pest or weed control at 500 g/ha: 500 g ai/ha
How it was run: as §1

[10] = test system: wheat (Triticum aestivum); assay: Test B pre/postemergence; settings: Triticum aestivum; for plant injury at 125 g/ha: 125 g ai/ha; for plant injury at 500 g/ha: 500 g ai/ha
How it was run: as §1

[11] = test system: blackgrass (Alopecurus myosuroides); assay: Test B postemergence; settings: Alopecurus myosuroides, post-emergence
How it was run: as §1

wild oat (Avena fatua) = assay: Test B postemergence; settings: Avena fatua, post-emergence
How it was run: as §1

[12] = test system: barnyardgrass (Echinochloa crus-galli); assay: Test B flooded paddy test; settings: Echinochloa crus-galli, Flood, 1000 g ai/ha; scale 0 (no effect) to 100 (complete control); read-out: Plant response rating, Barnyardgrass
How it was run: (§2)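 Visual injury scoring (0 = no effect, 100 = complete control) versus controls made 13 to 15 days after treatment in the greenhouse. Test species were grown in flooded paddy to the 2-leaf stage: rice, barnyardgrass, umbrella sedge, duck salad.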

[13] = test system: duck salad (Heteranthera limosa); assay: Test B flooded paddy test; settings: Heteranthera limosa, Flood, 1000 g ai/ha; scale 0 to 100; read-out: Plant response rating, Ducksalad
How it was run: as §2

rice (Oryza sativa) = assay: Test B flooded paddy test; settings: Oryza sativa, Flood, 1000 g ai/ha; scale 0 to 100; read-out: Plant response rating, Rice
How it was run: as §2

[14] = test system: umbrella sedge (Cyperus difformis); assay: Test B flooded paddy test; settings: Cyperus difformis, Flood, 1000 g ai/ha; scale 0 to 100; read-out: Plant response rating, Sedge, Umbrella
How it was run: as §2

## Nc1nc(C2CC2)nc(C(=O)OCc2ccccc2)c1Br [Compound 22, phenylmethyl 6-amino-5-bromo-2-cyclopropyl-4-pyrimidinecarboxylate]
[1]; post-emergence, Postemergence, scale 0 to 100 (0 no effect, 100 complete control), read-out: Surinam Grass plant response rating
  pest or weed control at 125 g/ha: 80%
[1]; post-emergence, Postemergence, scale 0 to 100, read-out: Plant response rating, Surinam Grass
  pest or weed control at 500 g/ha: 90%
[1]; pre-emergence, Preemergence, scale 0 to 100 (0 no effect, 100 complete control), read-out: Plant response rating, Surinam Grass
  pest or weed control at 125 g/ha: 0%
[1]; pre-emergence, Preemergence, scale 0 to 100 (0 no effect, 100 complete control), read-out: Surinam Grass plant response rating
  pest or weed control at 500 g/ha: 20%
[2]; post-emergence, Postemergence, scale 0 to 100 (0 no effect, 100 complete control), read-out: Barnyardgrass plant response rating
  pest or weed control at 125 g/ha: 70%
[2]; post-emergence, Postemergence, scale 0 to 100, read-out: Plant response rating, Barnyardgrass
  pest or weed control at 500 g/ha: 90%
[2]; pre-emergence, Preemergence, scale 0 to 100 (0 no effect, 100 complete control), read-out: Plant response rating, Barnyardgrass
  pest or weed control at 125 g/ha: 0%
[2]; pre-emergence, Preemergence, scale 0 to 100 (0 no effect, 100 complete control), read-out: Barnyardgrass plant response rating
  pest or weed control at 500 g/ha: 20%
[3]; post-emergence, Postemergence, scale 0 to 100 (0 no effect, 100 complete control), read-out: Cocklebur plant response rating
  pest or weed control at 125 g/ha: 100%
[3]; post-emergence, Postemergence, scale 0 to 100, read-out: Plant response rating, Cocklebur
  pest or weed control at 500 g/ha: 100%
[3]; pre-emergence, Preemergence, scale 0 to 100 (0 no effect, 100 complete control), read-out: Plant response rating, Cocklebur
  pest or weed control at 125 g/ha: 50%
[3]; pre-emergence, Preemergence, scale 0 to 100 (0 no effect, 100 complete control), read-out: Cocklebur plant response rating
  pest or weed control at 500 g/ha: 80%
Corn (Zea mays); post-emergence, Postemergence, 125 g ai/ha, scale 0 to 100 (0 no effect, 100 complete control), read-out: Corn plant response rating
  plant injury at 125 g/ha: 20%
Corn (Zea mays); post-emergence, Postemergence, 500 g ai/ha, scale 0 to 100
  Corn plant response rating (crop injury, 0 = no effect, 100 = complete kill) at 500 g/ha: 80%
Corn (Zea mays); pre-emergence, Preemergence, 125 g ai/ha, scale 0 to 100 (0 no effect, 100 complete control)
  Corn plant response rating (crop injury, 0 = no effect, 100 = complete kill) at 125 g/ha: 10%
[4]; post-emergence, Postemergence, scale 0 to 100 (0 no effect, 100 complete control), read-out: Crabgrass plant response rating
  pest or weed control at 125 g/ha: 50%
[4]; post-emergence, Postemergence, scale 0 to 100, read-out: Plant response rating, Crabgrass
  pest or weed control at 500 g/ha: 90%
[4]; pre-emergence, Preemergence, scale 0 to 100 (0 no effect, 100 complete control), read-out: Plant response rating, Crabgrass
  pest or weed control at 125 g/ha: 20%
[4]; pre-emergence, Preemergence, scale 0 to 100 (0 no effect, 100 complete control), read-out: Crabgrass plant response rating
  pest or weed control at 500 g/ha: 100%
[5]; post-emergence, Postemergence, scale 0 to 100 (0 no effect, 100 complete control), read-out: Foxtail, Giant plant response rating
  pest or weed control at 125 g/ha: 70%
[5]; post-emergence, Postemergence, scale 0 to 100, read-out: Plant response rating, Foxtail, Giant
  pest or weed control at 500 g/ha: 80%
[5]; pre-emergence, Preemergence, scale 0 to 100 (0 no effect, 100 complete control), read-out: Plant response rating, Foxtail, Giant
  pest or weed control at 125 g/ha: 0%
[5]; pre-emergence, Preemergence, scale 0 to 100 (0 no effect, 100 complete control), read-out: Foxtail, Giant plant response rating
  pest or weed control at 500 g/ha: 20%
[6]; post-emergence, Postemergence, scale 0 to 100 (0 no effect, 100 complete control), read-out: Lambsquarters plant response rating
  pest or weed control at 125 g/ha: 100%
[6]; post-emergence, Postemergence, scale 0 to 100, read-out: Plant response rating, Lambsquarters
  pest or weed control at 500 g/ha: 100%
[6]; pre-emergence, Preemergence, scale 0 to 100 (0 no effect, 100 complete control), read-out: Plant response rating, Lambsquarters
  pest or weed control at 125 g/ha: 70%
[6]; pre-emergence, Preemergence, scale 0 to 100 (0 no effect, 100 complete control), read-out: Lambsquarters plant response rating
  pest or weed control at 500 g/ha: 100%
[7]; post-emergence, Postemergence, scale 0 to 100 (0 no effect, 100 complete control), read-out: Morningglory plant response rating
  pest or weed control at 125 g/ha: 90%
[7]; post-emergence, Postemergence, scale 0 to 100, read-out: Plant response rating, Morningglory
  pest or weed control at 500 g/ha: 100%
[7]; pre-emergence, Preemergence, scale 0 to 100 (0 no effect, 100 complete control), read-out: Plant response rating, Morningglory
  pest or weed control at 125 g/ha: 100%
[7]; pre-emergence, Preemergence, scale 0 to 100 (0 no effect, 100 complete control), read-out: Morningglory plant response rating
  pest or weed control at 500 g/ha: 100%
[8]; post-emergence, Postemergence, scale 0 to 100 (0 no effect, 100 complete control), read-out: Pigweed plant response rating
  pest or weed control at 125 g/ha: 100%
[8]; post-emergence, Postemergence, scale 0 to 100, read-out: Plant response rating, Pigweed
  pest or weed control at 500 g/ha: 100%
[8]; pre-emergence, Preemergence, scale 0 to 100 (0 no effect, 100 complete control), read-out: Plant response rating, Pigweed
  pest or weed control at 125 g/ha: 60%
[8]; pre-emergence, Preemergence, scale 0 to 100 (0 no effect, 100 complete control), read-out: Pigweed plant response rating
  pest or weed control at 500 g/ha: 80%
[9]; post-emergence, Postemergence, scale 0 to 100 (0 no effect, 100 complete control), read-out: Velvetleaf plant response rating
  pest or weed control at 125 g/ha: 100%
[9]; post-emergence, Postemergence, scale 0 to 100, read-out: Plant response rating, Velvetleaf
  pest or weed control at 500 g/ha: 100%
[9]; pre-emergence, Preemergence, scale 0 to 100 (0 no effect, 100 complete control), read-out: Plant response rating, Velvetleaf
  pest or weed control at 125 g/ha: 30%
[9]; pre-emergence, Preemergence, scale 0 to 100 (0 no effect, 100 complete control), read-out: Velvetleaf plant response rating
  pest or weed control at 500 g/ha: 100%
[10]; post-emergence, Postemergence, scale 0 to 100 (0 no effect, 100 complete control), read-out: Wheat plant response rating
  plant injury at 125 g/ha: 0%
[10]; post-emergence, Postemergence, scale 0 to 100, read-out: Plant response rating, Wheat
  plant injury at 500 g/ha: 70%
[10]; pre-emergence, Preemergence, scale 0 to 100 (0 no effect, 100 complete control), read-out: Plant response rating, Wheat
  plant injury at 125 g/ha: 10%
[10]; pre-emergence, Preemergence, scale 0 to 100 (0 no effect, 100 complete control), read-out: Wheat plant response rating
  plant injury at 500 g/ha: 50%
[11]; 125 g ai/ha, scale 0 to 100 (0 no effect, 100 complete control), read-out: Blackgrass plant response rating
  pest or weed control at 125 g/ha: 60%
[11]; 500 g ai/ha, scale 0 to 100, read-out: Plant response rating, Blackgrass
  pest or weed control at 500 g/ha: 80%
Wild oat (Avena fatua); 125 g ai/ha, scale 0 to 100 (0 no effect, 100 complete control), read-out: Oat, Wild plant response rating
  pest or weed control at 125 g/ha: 10%
Wild oat (Avena fatua); 500 g ai/ha, scale 0 to 100, read-out: Plant response rating, Oat, Wild
  pest or weed control at 500 g/ha: 60%
[12]
  pest or weed control at 1000 g/ha: 80%
[13]
  pest or weed control at 1000 g/ha: 90%
Rice (Oryza sativa)
  plant injury at 1000 g/ha: 60%
[14]
  pest or weed control at 1000 g/ha: 50%
